# Test results: US20020065317A1, “Calcium salt compositions having improved solubility and method for preparing them” (priority 1998, published 2002)
# Assay: Dissolution time: time required fully to dissolve 1 gram of powder into 100 ml of water
# Type: physicochemical
# Details: 1 gram into 100 ml of water at 20° C.; only with vigorous stirring
# Description: The dissolution rate of the resulting powder is defined by the dissolution time, viz. the time required fully to dissolve 1 gram thereof into 100 ml of water at 20° C. The dissolution time of the calcium salts compositions of the invention is not more than 60 seconds and preferably not more than 10 seconds. The dissolution time of the powder obtained according to Example 1 is found to be 3.036 sec, while the dissolution time of the untreated calcium gluconate granules is 1.3 minutes, and this only when vigorous stirring is carried out to hasten as much as possible the dissolution. Therefore the powder of Example 1 is an instantly soluble powder, as this expression is to be construed in this, specification.
substance,measurement,value
calcium gluconate,dissolution time,1.3 min
